Source: ChEMBL document CHEMBL3886877, “Spiro ring compound as hepatitis C virus (HCV) inhibitor and uses thereof” (2016)

Experiment: Luciferase Assay: The Huh-7 cells transfected with HCV replicons system were seeded into 96-well plates (8,000 cells in 125 μL/well) respectively; each test compound was diluted to desired concentration using 5-fold serial dilutions protocol, 10 doses in duplicate, and added to wells with POD™ 810 Plate Assembler. […] In this paper, experiments were repeated twice and set the holes without compounds as negative control.

| SMILES | EC50 (Huh-7) [nM] | EC50 [nM] |
| --- | --- | --- |
| COC(=O)N[C@H](C(=O)N1C[C@@H](C)C[C@H]1[n+]1c[nH]c(-c2ccc(-c3ccc(-c4ccc5nc([C@@H]6C[C@H](C)CN6C(=O)[C@@H](NC(=O)OC)C(C)C)[nH]c(=O)c5c4)c4c3CC3(CCCC3)C4)cc2)c1)C(C)C | 0.006 |  |
| COC(=O)N[C@H](C(=O)N1CCC[C@H]1c1ncc(-c2ccc(-c3ccc(-c4ccc5nc([C@@H]6CCCN6C(=O)[C@@H](NC(=O)OC)C(C)C)[nH]c(=O)c5c4)c4c3CC3(CCCC3)C4)cc2)[nH]1)C(C)C |  | 0.087 |
